Measured values as given in PubChem BioAssay AID463204 (Broad Institute, 2010).
Activity calls are given as the source filed them.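 Rule for the calls: active = AC50 no more than ten times the top concentration tested, that is within one log above it; inconclusive = flat curve fit with activity between 30% and 70%, or invalid poor fit; inactive = AC50 beyond ten times the top tested dose.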

System: S. cerevisiae Mot1-301 ts growth rescue, BacTiter-Glo ATP luminescence
Assay: restored Mot1-301 yeast growth at 38.5C – whole organism, S. cerevisiae, Mot1-301 ts mutant, luminescence, dose retest, SUMOylation pathway inhibitor project, confirmation (AID 463204);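 note: growth at restrictive 38.5 degrees C of Mot1-301 OY566 strain; actives raise luminescence by restoring growth of the ts mutant at high temperature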

## CC(C)COc1ccc(C(=O)Nc2ccc([N+](=O)[O-])cc2)cc1
  AC50: > 42 µM (inactive)

## O=[N+]([O-])c1ccc(-c2csc(N3CCc4ccccc4C3)n2)cc1
  AC50: > 42 µM (inactive)

## O=C(Nc1ccc(F)cc1)c1cccnn1
  AC50: > 42 µM (inactive)

## Cc1cc(O)c(/C=N/Nc2cccc(Cl)c2)c(=O)o1
  AC50: 3.95 µM

## CCn1ncc(Br)c1C(=O)Nc1ccc(OC(F)(F)F)cc1
  AC50: > 42 µM (inactive)

## CCCc1nc(NCc2ccccc2)c(C#N)c2c1CCCC2
  AC50: > 42 µM (inactive)

## CCN(CC(=O)NCc1ccc(Cl)cc1)C(=O)/C=C/c1ccc(C#N)cc1
  AC50: > 42 µM (inactive)

## Nc1ccc(S(=O)(=O)NNC(=O)C(=O)NNc2ccccc2)cc1
  AC50: > 42 µM (inactive)

## C[C@]12CC[C@H]3C(=CCc4cc(O)ccc43)[C@@H]1CCC2=O
  AC50: > 42 µM (inactive)

## Nc1cc(C(=O)OCC(=O)N2CCOCC2)ccc1Cl
  AC50: > 42 µM (inactive)

## COc1ccc(C(=O)O/N=C(\N)c2ccccc2)cc1OC
  AC50: > 42 µM (inactive)

## Cc1ccc(N=c2ssnc2Cl)cc1
  AC50: 3.13 µM

## Cc1cc(=O)oc2ccc(OC(=O)CC(C)C)cc12
  AC50: > 42 µM (inactive)

## COCCN1C=C(C(=O)OC)C(c2cc3c(cc2Br)OCO3)C(C(=O)OC)=C1
  AC50: > 42 µM (inactive)

## C=CCn1c(CCC)nc2ccccc21
  AC50: > 42 µM (inactive)

## O=C(NCC1CCCO1)c1nn2c(C(F)(F)F)cc(-c3cc(Br)cs3)nc2c1Br (stereo unspecified)
  AC50: > 42 µM (inactive)

## COc1ccccc1OCCCn1cc(C#N)c2ccccc21
  AC50: > 42 µM (inactive)

## N#C/C(=C/c1ccc(N2CCCCC2)o1)C(=O)Nc1ccc(Cl)cc1
  AC50: > 42 µM (inactive)

## CC1(C)C=C(c2ccc(O)cc2)CC(C)(C)N1
  AC50: > 42 µM (inactive)

## COc1ccccc1NC(=S)N(Cc1ccccc1)Cc1cccs1
  AC50: > 42 µM (inactive)

## O=C(NCCc1c[nH]c2ccccc12)c1cc(S(=O)(=O)N2CCCCC2)ccc1N1CCOCC1
  AC50: > 42 µM (inactive)

## CCOC(=O)C1=C(N)c2ccccc2CC1C1CCCC1 (stereo unspecified)
  AC50: > 42 µM (inactive)

## CCn1nnc(-c2ccccc2NC(=O)c2cnccn2)n1
  AC50: > 42 µM (inactive)

## COc1ccc(Cl)cc1NC(=O)C1CCCN(c2cc(C)nc3ncnn23)C1 (stereo unspecified)
  AC50: > 42 µM (inactive)

## Nc1cc(-c2ccc(Cl)cc2)nn1S(=O)(=O)c1ccc(Cl)cc1
  AC50: > 42 µM (inactive)

## O=C(O)/C=C/c1cccnc1
  AC50: > 42 µM (inactive)

## CCOC(=O)N1CCN(S(=O)(=O)c2ccc(Br)s2)CC1
  AC50: > 42 µM (inactive)

## Cc1ccc(NC(=S)NNC(=O)c2ccc(N3CCOCC3)c([N+](=O)[O-])c2)cc1C
  AC50: > 42 µM (inactive)

## O=C(/C=C/N1CCOCC1)c1coc2ccccc12
  AC50: > 42 µM (inactive)

## Cc1nn(C)cc1CNC(=O)C1CCC(=O)N(Cc2cccc(C(F)(F)F)c2)C1 (stereo unspecified)
  AC50: > 42 µM (inactive)

## CC1(C)CC(=O)C(C(=O)c2ccccc2)C(=O)C1Cl (stereo unspecified)
  AC50: > 42 µM (inactive)

## N#CCCN(C(=O)COC(=O)c1ccc(S(=O)(=O)Nc2ccccc2)cc1)c1ccccc1
  AC50: > 42 µM (inactive)

## CCC(CC)C(=O)Nc1ccc(S(=O)(=O)Nc2nccs2)cc1
  AC50: > 42 µM (inactive)

## COc1ccc(OC)c(Cc2nnc(CCC(=O)NCc3ccsc3)o2)c1
  AC50: > 42 µM (inactive)

## CC(=O)c1cc(C)ccc1OC(=O)c1ccco1
  AC50: > 42 µM (inactive)

## COc1cccc(C2C(C(C)=O)=C(O)C(=O)N2CCc2c[nH]c3ccccc23)c1 (stereo unspecified)
  AC50: > 42 µM (inactive)

## CCCNC(=O)COC(=O)CCC(=O)c1cccs1
  AC50: > 42 µM (inactive)

## CCOC(=O)c1sc(NC(=O)CSc2n[nH]c(-c3ccccc3)n2)c(C#N)c1C
  AC50: 20.6 µM

## Cc1nc2ccccc2c(=O)n1CC(=O)N1CCOCC1
  AC50: > 42 µM (inactive)

## CCc1ccccc1NC1c2ccccc2C(=O)N1c1cccnc1 (stereo unspecified)
  AC50: > 42 µM (inactive)

## CC1(C)CCC(=O)N2CC[C@H]3C[C@H](OC(=O)Nc4ccc(Br)cc4)C[C@@H]1[C@H]32
  AC50: > 42 µM (inactive)

## CCNc1nc(NCC)nc(SCCOC(=O)Nc2ccccc2)n1
  AC50: > 42 µM (inactive)

## COc1ccc(C(=O)OCC(=O)c2ccccc2)cc1S(=O)(=O)N1CCOCC1
  AC50: > 42 µM (inactive)

## Cc1ccc(N/C=C(\C#N)c2ccc(OCCCF)cc2)cc1
  AC50: > 42 µM (inactive)

## O=C(CCCC(=O)N(CC(=O)NC1CCCC1)c1cccc(F)c1)Nc1ccccn1
  AC50: > 42 µM (inactive)

## Cc1ccc(NC(=O)C(=O)NCC2CCCN2S(=O)(=O)c2cccs2)cc1 (stereo unspecified)
  AC50: > 42 µM (inactive)

## COc1cc([C@@H]2CC=C(C(=O)O)[C@H](c3ccccc3F)N2S(=O)(=O)c2ccc(C)cc2)cc(OC)c1OC
  AC50: > 42 µM (inactive)

## O=C(O)COc1ccc(Br)cc1/C=N\Nc1ccccn1
  AC50: > 42 µM (inactive)

## COc1ccccc1N1C(=O)c2ccccc2NC1C(OC)OC (stereo unspecified)
  AC50: > 42 µM (inactive)

## CCCCOc1ccc(CSC(=N)N)cc1Cl
  AC50: > 42 µM (inactive)

## CC(=O)Nc1cccc2c1C(=O)N(c1ccccc1C)C2=O
  AC50: > 42 µM (inactive)

## CCOc1ccc(-n2cc(C(=O)NCCOC)c3cc(OC)c(OC)cc3c2=O)cc1
  AC50: > 42 µM (inactive)

## COc1ccc(CCNC(=O)c2cc(-c3ccco3)on2)cc1OC
  AC50: > 42 µM (inactive)

## COc1ccccc1N1CCN(C(=O)c2ccc(-c3ccccc3)cc2)CC1
  AC50: > 42 µM (inactive)

## COc1ccc(NC2=C(C)C(=O)CC2)cc1
  AC50: > 42 µM (inactive)

## Cc1cnc(C(=O)OCC(=O)Nc2ccc(C)c(S(=O)(=O)N(C)C)c2)cn1
  AC50: > 42 µM (inactive)

## O=C(O)CN(c1ccccn1)S(=O)(=O)c1ccc(Cl)cc1
  AC50: > 42 µM (inactive)

## COc1ccc(Nc2cc(NCCCO)c([N+](=O)[O-])c3nonc23)cc1
  AC50: > 42 µM (inactive)

## Cc1[nH]c(C)c(S(=O)(=O)NCC(C)c2ccccc2)c1C(=O)N1CCCCC1 (stereo unspecified)
  AC50: > 42 µM (inactive)

## CN(C)S(=O)(=O)c1cccc(NC(=O)C(c2ccccc2)c2ccccc2)c1
  AC50: > 42 µM (inactive)

## Oc1ccccc1-c1cc(C(F)(F)C(F)F)[nH]n1
  AC50: > 42 µM (inactive)

## Oc1c(Br)cc(Br)cc1C=Nc1cccnc1
  AC50: 4.88 µM

## COc1ccc(S(=O)(=O)n2nc(-c3ccc(Cl)cc3)cc2N)cc1OC
  AC50: > 42 µM (inactive)

## O=C(Oc1ccccc1N1C(=O)C2CC=CCC2C1=O)c1ccc(Br)cc1 (stereo unspecified)
  AC50: > 42 µM (inactive)

## CC1(C)Oc2ccc3ccc(=O)oc3c2/C(=C/Nc2ccc(O)cc2)C1=O
  AC50: > 42 µM (inactive)

## CN(C(=O)COC(=O)c1cc(-c2ccc(Cl)s2)nc2ccccc12)C1CCS(=O)(=O)C1 (stereo unspecified)
  AC50: > 42 µM (inactive)

## CNS(=O)(=O)c1cccc(C(=O)NCC2(N3CCCCC3)CCCCC2)c1
  AC50: 39.2 µM

## O=C(O)C1C(C(=O)O)C2(Cl)C(Cl)=C(Cl)C1(Cl)C2(Cl)Cl (stereo unspecified)
  AC50: > 42 µM (inactive)

## CC1CN(S(=O)(=O)c2cccc(C(=O)N=c3sccn3C)c2)CC(C)O1 (stereo unspecified)
  AC50: > 42 µM (inactive)

## CC1(OC(=O)CCc2ccccc2)C(=O)C=C2C=C(c3ccc(C#N)cc3)N(CC3CC3)C=C2C1=O (stereo unspecified)
  AC50: > 42 µM (inactive)

## Cc1cccc(N2C(=O)CSC2c2cccnc2)c1 (stereo unspecified)
  AC50: > 42 µM (inactive)

## O=C(NCC1CCCO1)C1CC(c2ccc(Cl)c(Cl)c2)=NO1 (stereo unspecified)
  AC50: > 42 µM (inactive)

## Cc1ccc(C2C(C(=O)c3cccs3)=C(O)C(=O)N2c2ccc(S(N)(=O)=O)cc2)cc1 (stereo unspecified)
  AC50: > 42 µM (inactive)

## CCc1c(C)nc(N2CCN(Cc3ccccc3)CC2)[nH]c1=O
  AC50: > 42 µM (inactive)

## CNC(=O)NNC(=O)c1csc(-c2ccc(C(F)(F)F)cc2Cl)n1
  AC50: > 42 µM (inactive)

## CCCc1ccc(S(=O)(=O)NCCc2ccncc2)cc1
  AC50: > 42 µM (inactive)

## CCC(CC)C(=O)N1CCCC(c2nc(-c3cccs3)no2)C1 (stereo unspecified)
  AC50: > 42 µM (inactive)

## CCCCn1c(SCC(=O)Nc2cc(C)on2)nnc1-c1ccco1
  AC50: > 42 µM (inactive)

## COc1cc(CN2CCCC(CO)(Cc3cccc(Cl)c3)C2)cc2c1OCO2 (stereo unspecified)
  AC50: > 42 µM (inactive)

## Cc1ccc(NC(=O)Nc2cccc(C(F)(F)F)c2)nc1
  AC50: > 42 µM (inactive)

## Cc1ccc(CNC(=O)c2ccc(N3CCC4(CC3)CC(c3ccccc3)=NO4)c(NC(=O)c3cccc(C)c3)c2)cc1
  AC50: > 42 µM (inactive)

## COc1ccc(NC(=S)Nc2ccccc2OC)c(OC)c1
  AC50: > 42 µM (inactive)

## O=C(Nc1cccnc1Cl)c1cc2ccccc2o1
  AC50: > 42 µM (inactive)

## O=Cc1ccccc1OCCN1CCCC1=O
  AC50: > 42 µM (inactive)

## Cc1ccccc1-c1nc2ccc(Cl)cc2c(=O)n1O
  AC50: > 42 µM (inactive)

## CC1(OC(=O)C2CCCC2)C(=O)C=C2C=C(c3ccsc3)OC=C2C1=O (stereo unspecified)
  AC50: > 42 µM (inactive)

## C=C(C)C(=O)OC1(C(F)(F)F)Oc2cc(C)ccc2NC1=O (stereo unspecified)
  AC50: 4.67 µM

## Cc1ccc(NC(=O)COc2ccccc2C(=O)NCCN(C)C)cc1
  AC50: > 42 µM (inactive)

## O=C(NCC(c1cccs1)N1CCOCC1)c1ccccc1NS(=O)(=O)c1cc([N+](=O)[O-])ccc1Cl (stereo unspecified)
  AC50: > 42 µM (inactive)

## O=C(COC(=O)CNC(=O)c1ccc(Cl)cc1)Nc1ncc(C(F)(F)F)cc1Cl
  AC50: > 42 µM (inactive)

## COc1ccc2[nH]c(=O)c(CN(C(=O)c3ccccn3)c3ccccc3)cc2c1
  AC50: > 42 µM (inactive)

## Cc1ccc(NS(=O)(=O)c2c(C)[nH]c(C)c2C(=O)N2CCCCC2)c(Cl)c1
  AC50: > 42 µM (inactive)

## Cc1ccc2nc3c(cc(C(=O)NCCN4CCOCC4)c(=N)n3CCCN3CCOCC3)c(=O)n2c1
  AC50: > 42 µM (inactive)

## Cc1ccc(/C=C2\SC(N3CCCC3)=NC2=O)cc1
  AC50: > 42 µM (inactive)

## CN(C)CC/C=C1/c2cc(F)ccc2Sc2ccc(Cl)cc21
  AC50: > 42 µM (inactive)

## CC(=O)c1ccc2noc(-c3ccc(F)cc3)c2c1
  AC50: > 42 µM (inactive)

## NC(=O)c1ccccc1NC(=O)c1ccc2c(c1)OCO2
  AC50: > 42 µM (inactive)

## Cc1cc(C)cc(-n2ncc3c2CCCC3NC(=O)c2cc(C)[nH]n2)c1 (stereo unspecified)
  AC50: > 42 µM (inactive)

## COc1ccc(CCC(=O)NNC(=S)Nc2cccc(C(C)=O)c2)cc1
  AC50: > 42 µM (inactive)

## CCOC(=O)N1CCN(S(=O)(=O)c2ccc(C)c(C)c2)CC1
  AC50: > 42 µM (inactive)

## Cn1cccc1CC(=O)N/N=C/c1cccc([N+](=O)[O-])c1
  AC50: > 42 µM (inactive)
